Experimental data taken from ChEMBL document CHEMBL1135565, “Synthesis of base-modified dihydropacidamycins” (2002).

What was measured:
Format in all cases: functional
Escherichia coli = assay: Minimum inhibitory concentration against Escherichia coli
Pasteurella multocida = assay: Minimum inhibitory concentration against Pasteurella multocida
Pseudomonas aeruginosa = assay: Minimum inhibitory concentration against Pseudomonas aeruginosa
Staphylococcus aureus = assay: Minimum inhibitory concentration against Staphylococcus aureus

Row | MIC (Escherichia coli) | MIC (Pasteurella multocida) | MIC (Pseudomonas aeruginosa) | MIC (Staphylococcus aureus) | Compound
1 | > 512 µg/mL | > 512 µg/mL | > 512 µg/mL | > 512 µg/mL | C[C@H](NC(=O)N[C@@H](Cc1c[nH]c2ccccc12)C(=O)O)C(=O)N[C@H](C(=O)NC[C@H]1C[C@@H](O)[C@H](n2ccc(=O)n(C)c2=O)O1)[C@H](C)N(C)C(=O)[C@@H](C)N
2 | > 512 µg/mL | > 512 µg/mL | > 512 µg/mL | > 512 µg/mL | COc1cccn([C@@H]2O[C@@H](CNC(=O)[C@@H](NC(=O)[C@H](C)NC(=O)N[C@@H](Cc3c[nH]c4ccccc34)C(=O)O)[C@H](C)N(C)C(=O)[C@@H](C)N)C[C@H]2O)c1=O
3 | > 512 µg/mL | > 512 µg/mL | > 512 µg/mL | > 512 µg/mL | Cc1cn([C@@H]2O[C@@H](CNC(=O)[C@@H](NC(=O)[C@H](C)NC(=O)N[C@@H](Cc3c[nH]c4ccccc34)C(=O)O)[C@H](C)N(C)C(=O)[C@@H](C)N)C[C@H]2O)c(=O)[nH]c1=O
4 | > 512 µg/mL | > 512 µg/mL | > 512 µg/mL | > 512 µg/mL | Cc1c(C)n([C@@H]2O[C@@H](CNC(=O)[C@@H](NC(=O)[C@H](C)NC(=O)N[C@@H](Cc3c[nH]c4ccccc34)C(=O)O)[C@H](C)N(C)C(=O)[C@@H](C)N)C[C@H]2O)c(=O)[nH]c1=O
5 | > 512 µg/mL | > 512 µg/mL | > 512 µg/mL | > 512 µg/mL | C[C@H](NC(=O)N[C@@H](Cc1c[nH]c2ccccc12)C(=O)O)C(=O)N[C@H](C(=O)NC[C@H]1C[C@@H](O)[C@H](n2cc(Cl)c(=O)[nH]c2=O)O1)[C@H](C)N(C)C(=O)[C@@H](C)N
6 | > 512 µg/mL | > 512 µg/mL | > 512 µg/mL | > 512 µg/mL | C[C@H](NC(=O)N[C@@H](Cc1c[nH]c2ccccc12)C(=O)O)C(=O)N[C@H](C(=O)NC[C@H]1C[C@@H](O)[C@H](n2cc(F)c(=O)[nH]c2=O)O1)[C@H](C)N(C)C(=O)[C@@H](C)N
7 | > 512 µg/mL | > 512 µg/mL | > 512 µg/mL | > 512 µg/mL | Cc1cc(=O)[nH]c(=O)n1[C@@H]1O[C@@H](CNC(=O)[C@@H](NC(=O)[C@H](C)NC(=O)N[C@@H](Cc2c[nH]c3ccccc23)C(=O)O)[C@H](C)N(C)C(=O)[C@@H](C)N)C[C@H]1O
